Laboratory results: article PMC13095408, “DBeQ derivative targets vacuolar protein sorting 4 functions in cancer cells and suppresses tumor growth in mice” (The Journal of Pharmacology and Experimental Therapeutics, 2025)

Experiments:
U2OS cells [1] = test: Immunoblot analysis of VPS4- and VCP-mediated pathways (autophagy, ER stress, ERAD); assay type: cell-based
Procedure: Whole-cell lysates were prepared in radio-immunoprecipitation buffer (25 mM Tris-HCl, pH 8.0, 150 mM NaCl, 1 mM EDTA, 1% v/v IGEPAL CA-630, 0.5% w/v sodium deoxycholate, and 1% v/v SDS) containing protease (1:250) and phosphatase inhibitor cocktails (1:100) then resolved via SDS-PAGE and probed with the indicated antibodies. Signals were acquired with the Odyssey CLx (LI-COR) for fluorescence or Odyssey XF (LI-COR) for chemiluminescence detection and visualized in Image Studio version 6 (LI-COR).
VPS4 is essential for autophagy and loss of VPS4 function inhibits autophagic flux ([Takahashi et al, 2018]; [Zhen et al, 2019]). Meanwhile, VCP is required for endoplasmic reticulum-associated degradation (ERAD; [Rabinovich et al, 2002]) where VCP inhibition results in the accumulation of ubiquitinated proteins and induction of ER stress ([Weihl et al, 2006]; [Bastola et al, 2016]).

U2OS cells [2] = test: Live-cell quantification of YOYO-3-positive dead cells; assay type: cell-based
Procedure: To measure caspase activity, cells cultured in white opaque-bottom 384-well plates were incubated in the presence or absence of 1 μg/mL Dox for 24 hours. Caspase-Glo 8 or 3/7 reagent was then added 1:1 and allowed to incubate for 90 minutes at RT followed by luminescence measurement using the CLARIOstar microplate reader (BMG LABTECH). Signals had background luminescence subtracted and then normalized to the respective Dox-untreated i-GFP-expressing parental controls to obtain relative CASP8-like LETDase or CASP3/7-like DEVDase activities. For live-cell quantification, the cells seeded on black clear-bottom 96-well plates were incubated with the indicated compounds (0.1% to 0.3% DMSO final) in the presence of 100 nM YOYO-3, a cell-impermeant DNA-binding fluorescent probe that stains membrane integrity-impaired, dead cells. […] Phase and fluorescence images were obtained at the indicated intervals using the IncuCyte S3 Live-Cell Analysis System (Essen BioScience; 10× objective) and then analyzed using the Cell-by-Cell Analysis module (Essen BioScience; 9600-0031) of IncuCyte S3 Software (Essen BioScience; Version 2019B Rev2). To quantify the percentage of dead GFP-expressing cells, the GFP and YOYO-3 double-positive cell population was divided by the total GFP-positive cell population.

VPS4B = target: T1, VPS4B (Homo sapiens, UniProt O75351); test: VPS4B ATPase activity, EnzChek Phosphate assay; assay type: biochemical; design: His tag (pET28a vector-encoded) (N); made in house; host or cells: Escherichia coli BL21(DE3)
T1 sequence (O75351 1-444): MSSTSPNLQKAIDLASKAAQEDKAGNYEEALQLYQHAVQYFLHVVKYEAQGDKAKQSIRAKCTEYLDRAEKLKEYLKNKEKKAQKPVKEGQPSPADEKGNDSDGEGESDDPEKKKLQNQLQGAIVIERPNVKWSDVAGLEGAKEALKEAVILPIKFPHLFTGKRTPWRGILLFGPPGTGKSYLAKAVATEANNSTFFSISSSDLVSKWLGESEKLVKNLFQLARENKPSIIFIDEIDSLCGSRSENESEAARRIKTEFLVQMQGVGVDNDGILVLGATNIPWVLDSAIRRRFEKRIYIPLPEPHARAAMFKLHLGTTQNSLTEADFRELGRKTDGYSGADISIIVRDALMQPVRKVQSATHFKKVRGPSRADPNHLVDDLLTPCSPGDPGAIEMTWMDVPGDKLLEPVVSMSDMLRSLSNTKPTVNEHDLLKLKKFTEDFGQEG
Outline: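 EnzChek phosphate release (MESG/PNP, 360 nm) with ATPases at 1 μM (diluted stock) in HEPES pH 7.4 buffers with MgCl2, CaCl2, DTT, BSA, Triton; 30 min compound preincubation at RT, started with MgATP, read 20 min at 37 °C. Activity from 5-min linear initial rate, normalized to DMSO; IC50 from Hill slope −1 fit.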

[3] = 5 μM DBeQ, 0.6 μM CB-5083, 1 μM 4-107, complete media

Structure (SMILES): COc1cccc2c(NCc3ccccc3)nc(NCc3ccccc3)nc12 [Compound 4-107, N^2,N^4-dibenzyl-8-methoxyquinazoline-2,4-diamine]
- accumulation of K48-linked polyubiquitinated proteins (U2OS cells [1]; 0.6 μM CB-5083, 1 μM 4-107, complete media): did not induce ER stress or the accumulation of polyubiquitinated proteins
- VCP pathway (ubiquitinated proteins, ATF4, SQSTM1) (U2OS cells [1]; 5 μM 4-107, 4 hours, complete media): VCP pathway perturbation
- ER stress (HSPA5, ATF4) (U2OS cells [1]; [3]): did not induce ER stress
- autophagy (SQSTM1, LC3-II) (U2OS cells [1]; [3]): inhibited autophagy over time
- cell death (YOYO-3-positive dead cells) (U2OS cells [2]; 2 μM 4-107, WT U2OS cells): induced cell death in a time-dependent manner
- enhanced temporal sensitivity of VPS4A- and VPS4B-deficient cells compared with WT cells (U2OS cells [2]; 2 μM 4-107, crVPS4A, crVPS4B vs WT U2OS): about 12 hours
- IC50 (VPS4B; 0.5 μM enzyme): 3.7 ± 0.1 µM
- VPS4B ATPase (% DMSO) (VPS4B; remaining ATPase activity, screened at 5 μM, mean ± SD, Table 1, listed as 1): 36.67 ± 1.73 % DMSO
- VPS4B ATPase (% DMSO) (VPS4B; screened at 5 µM, mean ± S.D., Supplemental Table 2): 36.67 ± 1.73 % DMSO
